Results on 1 compound are retold here after US20070031902A1, “Predictive Methods For Cancer Chemotherapy” (priority 2005, published 2007).

What all share (type): cell-based, human
The subject of one experiment is pERK (p44/p42). Kind of experiment: IHC and image analysis of pERK (p44/p42) under DFO-induced hypoxia. Conditions: 50 μM DFO overnight vs vehicle; negative in Jurkat cells, positive in HT1080 cells. The method, then: (§1) These markers were evaluated by immunohistochemistry (“IHC”) and image analysis in the presence of Desferrioxarnine (“DFO”)-induced hypoxia, as well as in its absence, or normoxia. DFO is an iron-chelating agent known to induce hypoxia, and was used in these experiments as a model for hypoxia. All IHC analyses were carried out on either the BenchMark XT® or Discovery XT® (Ventana Medical Systems, Inc., Tucson Ariz. (“VMSI”)) staining platforms. Primary antibodies were obtained from commercial sources (See Table 1). Controls were vehicle treated. […] Primary antibodies were detected using the DABMapTM, OmniMapTM (Discovery XT®), or iViewTM DAB (BenchMark XT®) detection kit according to the manufacturer's instructions. […] Detection Kit detected specific mouse IgG, IgM and rabbit IgG antibodies bound to an antigen in paraffin-embedded or frozen tissue section. […] Staining intensities, percentage of reactive cells, and cellular localization were recorded. […] Slides were reviewed and scored by the pathologist prior to quantitation by optical imaging. For optical imaging, a digital application (VMSI) with image quantification based on the intensity (expressed as average optical density, or avg. OD) of the stain converted to a numerical score was utilized. […]

The next experiment deals with pMEK. Kind of experiment: IHC and image analysis of pMEK under DFO-induced hypoxia. To be noted: Jurkat cells, 50 μM DFO overnight vs vehicle. The method, then: as §1
Experiment [1] relates to HIF-1α. Kind of experiment: IHC and image analysis of HIF-1α in HT1080 cells (DFO, PX-478 dose escalation). Conditions: DFO vs vehicle.
For the next experiment, the system named is pS6. Kind of experiment: IHC and image analysis of pS6 under DFO-induced hypoxia. To be noted: Jurkat cells, 50 μM DFO overnight vs vehicle. The method, then:
These markers were evaluated by immunohistochemistry (“IHC”) and image analysis in the presence of Desferrioxarnine (“DFO”)-induced hypoxia, as well as in its absence, or normoxia. DFO is an iron-chelating agent known to induce hypoxia, and was used in these experiments as a model for hypoxia. All IHC analyses were carried out on either the BenchMark XT® or Discovery XT® (Ventana Medical Systems, Inc., Tucson Ariz. (“VMSI”)) staining platforms. Primary antibodies were obtained from commercial sources (See Table 1). Controls were vehicle treated. […] Primary antibodies were detected using the DABMapTM, OmniMapTM (Discovery XT®), or iViewTM DAB (BenchMark XT®) detection kit according to the manufacturer's instructions. […] Detection Kit detected specific mouse IgG, IgM and rabbit IgG antibodies bound to an antigen in paraffin-embedded or frozen tissue section. […]

In experiment [2] the test system is HIF-1α. Kind of experiment: IHC and image analysis of HIF-1α in Jurkat cells under DFO-induced hypoxia. To be noted: 50 μM DFO overnight vs vehicle. The method, then: as §1
A further experiment relates to p4EBP1. Kind of experiment: IHC and image analysis of p4EBP1 under DFO-induced hypoxia. To be noted: Jurkat cells, 50 μM DFO overnight vs vehicle. The method, then:
as §1

Another experiment concerns mTOR. Kind of experiment: IHC and image analysis of mTOR under DFO-induced hypoxia. Conditions: 50 μM DFO overnight vs vehicle; consistently high. The method, then: as §1
The subject of another experiment is pmTOR. Kind of experiment: IHC and image analysis of pmTOR under DFO-induced hypoxia. Conditions: Jurkat cells, 50 μM DFO overnight vs vehicle. The method, then: as §1
Experiment [3] has as its system HIF-1α. Kind of experiment: FACS of hypoxia-induced HIF-1α expression in Jurkat tumor cell line. Conditions: after treatment with DFO. The method, then:
FIG. 6 illustrates the fluorescence-activated cell sorting (FACS) results of hypoxia-induced HIF-1α expression in a Jurkat tumor cell line. IHC was conducted and assessed according to the procedures detailed in Example 1. Western Blotting and FACS analysis were conducted using standard conditions.

A further experiment concerns pAKT. Kind of experiment: IHC and image analysis of pAKT under DFO-induced hypoxia. To be noted: Jurkat cells, 50 μM DFO overnight vs vehicle. The method, then: as §1
A further experiment concerns pTSC2. Kind of experiment: IHC and image analysis of pTSC2 under DFO-induced hypoxia. Conditions: Jurkat cells, 50 μM DFO overnight vs vehicle. The method, then: as §1

Entries after “also recorded” stand apart in the source; their conditions may differ.

`CC(=O)N(O)CCCCCNC(=O)CCC(=O)N(O)CCCCCNC(=O)CCC(=O)N(O)CCCCCN` [DFO, desferrioxamine]: in the experiment on pERK (p44/p42), the “level of pERK (IHC)” value is recorded as “No change”. The “pMEK expression (IHC)” value with pMEK is given as “decrease in expression”. In addition, the “HIF-1α expression (IHC)” value in the experiment on HIF-1α [1] is “increased expression”; in the experiment on HIF-1α [2], “increase in expression; also recorded: increased expression”. In the experiment with pS6, the “pS6 expression (IHC)” value is listed as “decrease in expression”. Further, the “p4EBP1 expression (IHC)” value in the experiment with p4EBP1 is given as “decrease in expression”. In addition, the “level of mTOR (IHC)” value in the experiment with mTOR was “No change”. Moreover, in the experiment on pmTOR, the “pmTOR expression (IHC)” value is on record as “increase in expression”. Further, in the experiment on HIF-1α [3], the “HIF-1α (FACS)” value is recorded as “increase in HIF-1α”. Further, the “pAKT level of expression or activation (IHC)” value with pAKT is “no change”. Besides, in the experiment with pTSC2, the “pTSC2 level of expression or activation (IHC)” value is on record as “no change”.
